Test results from patent publication US20130029970A1 (priority 2009, published 2013).

Tests used:
human CB2 (hCB2) = molecular target: T1, human CB2 (hCB2) (Homo sapiens, UniProt P34972); assay: 35S GTPγS binding assay, hCB2 agonist; format: biochemical; settings: GTPγS agonist, HEK-293 membranes; read-out: hCB2 EC50 (GTPyS ag)
T1 construct: (cDNA clone) CNR0200000
Procedure, shortened: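 Membranes (5 μg) from cells transfected with hCB2 cDNA in pcDNA3.1+ incubated with SPA beads, 0.1 nM [35S]GTPγS and 20 uM GDP in 50 mM HEPES pH 7.4, 100 mM NaCl, 5 mM MgCl2, 0.001% saponin, ± test compound. Incubation 90 min at room temperature; bound label read by scintillation counting.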

[1] = molecular target: T2, recombinant human cannabinoid receptor CB1 (Homo sapiens, UniProt P21554); assay: Cannabinoid receptor radioligand binding assay, [3H]-CP 55,940 displacement, hCB1
T2 construct: (cDNA clone) CNR01L000
T2 sequence (P21554 whole entry): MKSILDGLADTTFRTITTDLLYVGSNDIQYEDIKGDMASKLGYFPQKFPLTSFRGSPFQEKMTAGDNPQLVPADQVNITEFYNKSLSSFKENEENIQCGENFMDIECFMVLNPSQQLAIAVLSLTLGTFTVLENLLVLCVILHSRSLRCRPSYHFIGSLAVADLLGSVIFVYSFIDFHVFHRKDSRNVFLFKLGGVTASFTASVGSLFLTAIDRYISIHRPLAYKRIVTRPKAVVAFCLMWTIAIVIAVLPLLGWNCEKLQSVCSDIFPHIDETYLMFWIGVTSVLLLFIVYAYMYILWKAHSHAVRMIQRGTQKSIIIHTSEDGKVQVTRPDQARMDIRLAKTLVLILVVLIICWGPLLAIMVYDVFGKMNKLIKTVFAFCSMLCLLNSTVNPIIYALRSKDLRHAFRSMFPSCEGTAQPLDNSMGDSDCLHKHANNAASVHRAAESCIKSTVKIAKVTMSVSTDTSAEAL
Procedure, shortened: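 Membranes from HEK-293 cells stably expressing human CB1, 2-10 μg protein, incubated 90 min at room temperature with 0.5 nM [3H]-CP 55,940 in Tris-HCl pH 7.5, MgCl2, EDTA and 0.1% fatty-acid-free BSA. Bound radioactivity counted after rapid filtration; nonspecific binding defined with 1 μM unlabeled CP 55,940.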

human CB1 (hCB1) = molecular target: T3, human CB1 (hCB1) (Homo sapiens, UniProt P21554); assay: 35S GTPγS binding assay, hCB1 agonist; format: biochemical; settings: GTPγS agonist, HEK-293 membranes; read-out: hCB1 EC50 (GTPyS ag)
T3 construct: (cDNA clone) CNR01L000
T3 sequence (P21554 whole entry): as above

T1 sequence (P34972 whole entry): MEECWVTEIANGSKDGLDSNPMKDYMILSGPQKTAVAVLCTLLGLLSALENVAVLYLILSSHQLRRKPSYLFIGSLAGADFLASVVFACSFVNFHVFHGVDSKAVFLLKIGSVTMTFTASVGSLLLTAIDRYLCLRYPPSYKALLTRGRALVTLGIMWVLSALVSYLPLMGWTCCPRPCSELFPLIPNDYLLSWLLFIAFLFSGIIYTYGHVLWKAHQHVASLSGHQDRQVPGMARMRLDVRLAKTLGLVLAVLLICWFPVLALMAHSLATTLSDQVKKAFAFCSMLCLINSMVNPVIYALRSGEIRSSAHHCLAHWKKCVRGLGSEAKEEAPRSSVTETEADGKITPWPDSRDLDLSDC

Row | Structure (SMILES) | EC50 (human CB2 (hCB2)) | IC50 [1] | EC50 (human CB1 (hCB1))
1 | COc1ccc(C(=O)c2cc3cc(C)n(S(=O)(=O)CCN4CCOCC4)c3s2)cc1 [Compound 139, (4-methoxyphenyl)(5-methyl-6-(2-morpholinoethylsulfonyl)-6H-thieno[2,3-b]pyrrol-2-yl)methanone] | < 100 nM | 100 to 1000 nM | 100 to 1000 nM
2 | COc1ccc(C(=O)c2cc3cc(C)n(CCN4CCCOCC4)c3s2)cn1 [Compound 158, (6-(2-(1,4-oxazepan-4-yl)ethyl)-5-methyl-6H-thieno[2,3-b]pyrrol-2-yl)(6-methoxypyridin-3-yl)methanone] | 100 to 1000 nM | 100 to 1000 nM | > 10000 nM
3 | COc1ccc(C(=O)c2cc3cc(C)n(CCNC4CCOC4)c3s2)cn1 (stereo not drawn) [Compound 164, (6-methoxypyridin-3-yl)(5-methyl-6-(2-((tetrahydrofuran-3-yl)amino)ethyl)-6H-thieno[2,3-b]pyrrol-2-yl)methanone] | 1000 to 10000 nM | 1000 to 10000 nM | > 10000 nM
4 | COc1ccc(C(=O)c2cc3cc(C)n(CCN4CCCC4)c3s2)cn1 [Compound 167, (6-methoxypyridin-3-yl)(5-methyl-6-(2-(pyrrolidin-1-yl)ethyl)-6H-thieno[2,3-b]pyrrol-2-yl)methanone] | 1000 to 10000 nM | < 100 nM | > 10000 nM
